Data from publication PMC8877233, “The Hydrophobicity and Antifungal Potentiation of Burkholdine Analogues” (Molecules, 2022).
Converted amounts (≈) assume the structure as drawn. Starred links: 1 amine or outer side, 2 acyl side, 3 side chain; linkers in the order of their positions; H or OH if unused. Positions of bridges follow the written chain, without caps; N, C: chain ends. Non-standard residues stand in square brackets, D forms with d. Residues, ends and D or L forms follow the SMILES beside them. *: point of attachment. X12 = CCCCCCCCCCC(=O)N[C@H](C(=O)NC[C@H](CC(=O)[*:1])N[*:2])[C@@H](C)O; X11 = CCCCCCCCNC(=O)[C@H](O)[C@@H](O)C(=O)NC[C@H](CC(=O)[*:1])N[*:2]; X10 = CCCCCCCCCCCC(=O)N[C@@H](CO)C(=O)NC[C@@H](CC(=O)[*:1])N[*:2]; X13 = CCCCCCCCCCC(=O)N[C@@H](CO)C(=O)NC[C@H](CC(=O)[*:1])N[*:2]; X5 = CCCCCCCCCCCC(=O)N[C@@H](CO)C(=O)NC[C@H](CC(=O)[*:1])N[*:2]; X6 = CCCCCCCCCCC(=O)N[C@@H](CO)C(=O)NC[C@@H](CC(=O)[*:1])N[*:2]; X7 = CCCCCCCCCCCC(=O)N[C@H](CO)C(=O)NC[C@@H](CC(=O)[*:1])N[*:2]; X1 = CCCCCCCCCCC(=O)N[C@H](CO)C(=O)NC[C@@H](CC(=O)[*:1])N[*:2]; X4 = CCCCCCCCCCCC(=O)N[C@H](CO)C(=O)NC[C@H](CC(=O)[*:1])N[*:2]; X8 = CCCCCCCCCCC(=O)N[C@H](CO)C(=O)NC[C@H](CC(=O)[*:1])N[*:2]; Undecanoyl = CCCCCCCCCCC(=O)*; Lauroyl = CCCCCCCCCCCC(=O)*; Orn = NCCC[C@H](N)C(=O)O

Assays:
[1] = RP-HPLC retention time as measure of hydrophilicity/hydrophobicity; assay type: physicochemical; settings: chromatographic, Cosmosil 5C18-AR-II 4.6 x 150 mm, linear gradient 30–70% MeCN/H2O (0.1% TFA) for 30 min, 1 mL/min, UV 220 nm
Protocol: […] In all cases, the retention times of the (S)-Dab-containing peptides were shorter than those of the (R)-Dab-containing peptides, which were similar to those bearing L-Orn. The retention times of the cyclic peptides were shorter for Tat > D-Ser > L-Thr > L-Ser, while peptides bearing the undecanoic acid moiety eluted […] than those bearing the decanoic acid by about 2 min.

[2] = tested on: S. cerevisiae (ATCC204504); assay type: cell-based; settings: ATCC204504, 24 h
Protocol: Bacto yeast extract (0.63 g, 70161, Fluka, Barcelona, Spain), peptone (1.00 g, 26421, Mikuni, Japan), and glucose (1.00 g, 16806-25, Nacalai tesque, Japan) were added to H2O (50 mL) at room temperature and the mixture was heated to 60 °C. After 30 min, the mixture was sterilized by heating in an autoclave at 121 °C for 20 min.
DMSO (8 µL, 13406-55, Nacalai tesque, Japan) was added to YPD medium (750 µL). The test fungus culture solution (3 µL) was added to this solution (1.5 mL).
The inhibitor (each 1.0 mg; 3a–h, 4a–b, 5a–b, 6a–b, 7, 8) was dissolved in DMSO (40 µL).
The prepared test bacteria (50 µL) were placed in A1–A12 of a 96-well plate. Bk analogue (50 µL) was added to A1, pipetting was performed, and then 50 µL was extracted from A1 and placed in A2. This operation was repeated until A11, and 50 µL extracted from A11 was discarded. The well plate was closed and incubated at 30 °C. After 24 h, the MIC values were evaluated.

Row | tR [1] | MIC [2] | Compound
1 | 9.3 min | >200 mg/L | CCCCCCCCCCC(=O)N[C@@H](CO)C(=O)NC[C@@H]1CC(=O)N[C@H](CO)C(=O)N[C@H](Cc2ccc(O)cc2)C(=O)N[C@H](CC(N)=O)C(=O)NCC(=O)N[C@@H](CC(N)=O)C(=O)N[C@@H](CO)C(=O)N[C@@H](CC(N)=O)C(=O)N1 [Compound 3a, Cyclo-[Undecanoic Acid-Ser-(S)-7-D-Ser-D-Tyr-D-Asn-Gly-Asn-Ser-Asn]] ([dS][dY][dN]GNSN; linker N-C via X13)
2 | 11.7 min | 100 mg/L (≈ 90.4 µM) | CCCCCCCCCCCC(=O)N[C@@H](CO)C(=O)NC[C@@H]1CC(=O)N[C@H](CO)C(=O)N[C@H](Cc2ccc(O)cc2)C(=O)N[C@H](CC(N)=O)C(=O)NCC(=O)N[C@@H](CC(N)=O)C(=O)N[C@@H](CO)C(=O)N[C@@H](CC(N)=O)C(=O)N1 [Compound 3b, Cyclo-[Dodecanoic Acid-Ser-(S)-7-D-Ser-D-Tyr-D-Asn-Gly-Asn-Ser-Asn]] ([dS][dY][dN]GNSN; linker N-C via X5)
3 | 9.4 min | >200 mg/L | CCCCCCCCCCC(=O)N[C@H](CO)C(=O)NC[C@@H]1CC(=O)N[C@H](CO)C(=O)N[C@H](Cc2ccc(O)cc2)C(=O)N[C@H](CC(N)=O)C(=O)NCC(=O)N[C@@H](CC(N)=O)C(=O)N[C@@H](CO)C(=O)N[C@@H](CC(N)=O)C(=O)N1 [Compound 3c, Cyclo-[Undecanoic Acid-D-Ser-(S)-7-D-Ser-D-Tyr-D-Asn-Gly-Asn-Ser-Asn]] ([dS][dY][dN]GNSN; linker N-C via X8)
4 | 11.8 min | >200 mg/L | CCCCCCCCCCCC(=O)N[C@H](CO)C(=O)NC[C@@H]1CC(=O)N[C@H](CO)C(=O)N[C@H](Cc2ccc(O)cc2)C(=O)N[C@H](CC(N)=O)C(=O)NCC(=O)N[C@@H](CC(N)=O)C(=O)N[C@@H](CO)C(=O)N[C@@H](CC(N)=O)C(=O)N1 [Compound 3d, Cyclo-[Dodecanoic Acid-D-Ser-(S)-7-D-Ser-D-Tyr-D-Asn-Gly-Asn-Ser-Asn]] ([dS][dY][dN]GNSN; linker N-C via X4)
5 | 9.4 min | >200 mg/L | CCCCCCCCCCC(=O)N[C@@H](CO)C(=O)NC[C@H]1CC(=O)N[C@H](CO)C(=O)N[C@H](Cc2ccc(O)cc2)C(=O)N[C@H](CC(N)=O)C(=O)NCC(=O)N[C@@H](CC(N)=O)C(=O)N[C@@H](CO)C(=O)N[C@@H](CC(N)=O)C(=O)N1 [Compound 3e, Cyclo-[Undecanoic Acid-Ser-(R)-7-D-Ser-D-Tyr-D-Asn-Gly-Asn-Ser-Asn]] ([dS][dY][dN]GNSN; linker N-C via X6)
6 | 11.8 min | 200 mg/L (≈ 181 µM) | CCCCCCCCCCCC(=O)N[C@@H](CO)C(=O)NC[C@H]1CC(=O)N[C@H](CO)C(=O)N[C@H](Cc2ccc(O)cc2)C(=O)N[C@H](CC(N)=O)C(=O)NCC(=O)N[C@@H](CC(N)=O)C(=O)N[C@@H](CO)C(=O)N[C@@H](CC(N)=O)C(=O)N1 [Compound 3f, Cyclo-[Dodecanoic Acid-Ser-(R)-7-D-Ser-D-Tyr-D-Asn-Gly-Asn-Ser-Asn]] ([dS][dY][dN]GNSN; linker N-C via X10)
7 | 9.6 min | >200 mg/L | CCCCCCCCCCC(=O)N[C@H](CO)C(=O)NC[C@H]1CC(=O)N[C@H](CO)C(=O)N[C@H](Cc2ccc(O)cc2)C(=O)N[C@H](CC(N)=O)C(=O)NCC(=O)N[C@@H](CC(N)=O)C(=O)N[C@@H](CO)C(=O)N[C@@H](CC(N)=O)C(=O)N1 [Compound 3g, Cyclo-[Undecanoic Acid-D-Ser-(R)-7-D-Ser-D-Tyr-D-Asn-Gly-Asn-Ser-Asn]] ([dS][dY][dN]GNSN; linker N-C via X1)
8 | 11.8 min | >200 mg/L | CCCCCCCCCCCC(=O)N[C@H](CO)C(=O)NC[C@H]1CC(=O)N[C@H](CO)C(=O)N[C@H](Cc2ccc(O)cc2)C(=O)N[C@H](CC(N)=O)C(=O)NCC(=O)N[C@@H](CC(N)=O)C(=O)N[C@@H](CO)C(=O)N[C@@H](CC(N)=O)C(=O)N1 [Compound 3h, Cyclo-[Dodecanoic Acid-D-Ser-(R)-7-D-Ser-D-Tyr-D-Asn-Gly-Asn-Ser-Asn]] ([dS][dY][dN]GNSN; linker N-C via X7)
9 | 10.4 min | >200 mg/L | CCCCCCCCCCC(=O)N[C@H](C(=O)NC[C@@H]1CC(=O)N[C@H](CO)C(=O)N[C@H](Cc2ccc(O)cc2)C(=O)N[C@H](CC(N)=O)C(=O)NCC(=O)N[C@@H](CC(N)=O)C(=O)N[C@@H](CO)C(=O)N[C@@H](CC(N)=O)C(=O)N1)[C@@H](C)O [Compound 4a, Cyclo-[Undecanoic Acid-Thr-(S)-7-D-Ser-D-Tyr-D-Asn-Gly-Asn-Ser-Asn]] ([dS][dY][dN]GNSN; linker N-C via X12)
10 | 5.3 min | >200 mg/L | CCCCCCCCNC(=O)[C@H](O)[C@@H](O)C(=O)NC[C@@H]1CC(=O)N[C@H](CO)C(=O)N[C@H](Cc2ccc(O)cc2)C(=O)N[C@H](CC(N)=O)C(=O)NCC(=O)N[C@@H](CC(N)=O)C(=O)N[C@@H](CO)C(=O)N[C@@H](CC(N)=O)C(=O)N1 [Compound 5a, Cyclo-[(2R,3R)-2,3-dihydroxy-4-(octylamino)-4-oxobutanoic Acid-(S)-7-D-Ser-D-Tyr-D-Asn-Gly-Asn-Ser-Asn]] ([dS][dY][dN]GNSN; linker N-C via X11)
11 | 9.7 min | >200 mg/L | CCCCCCCCCCC(=O)N[C@@H](CO)C(=O)N[C@H]1CCCNC(=O)[C@H](CC(N)=O)NC(=O)[C@H](CO)NC(=O)[C@H](CC(N)=O)NC(=O)CNC(=O)[C@@H](CC(N)=O)NC(=O)[C@@H](Cc2ccc(O)cc2)NC(=O)[C@@H](CO)NC1=O [Compound 6a, Cyclo-[Undecanoic Acid-Ser-Orn-D-Ser-D-Tyr-D-Asn-Gly-Asn-Ser-Asn]] (Undecanoyl-S[Orn][dS][dY][dN]GNSN; lactam 2-C)
12 | 12.1 min | >200 mg/L | CCCCCCCCCCCC(=O)N[C@@H](CO)C(=O)N[C@H]1CCCNC(=O)[C@H](CC(N)=O)NC(=O)[C@H](CO)NC(=O)[C@H](CC(N)=O)NC(=O)CNC(=O)[C@@H](CC(N)=O)NC(=O)[C@@H](Cc2ccc(O)cc2)NC(=O)[C@@H](CO)NC1=O [Compound 6b, Cyclo-[Dodecanoic Acid-Ser-Orn-D-Ser-D-Tyr-D-Asn-Gly-Asn-Ser-Asn]] (Lauroyl-S[Orn][dS][dY][dN]GNSN; lactam 2-C)
13 | – | >200 mg/L | CCCCCCCCCCC(=O)N[C@H](CO)C(=O)N[C@H]1CCCNC(=O)[C@H](CC(N)=O)NC(=O)[C@H](CO)NC(=O)[C@H](CC(N)=O)NC(=O)CNC(=O)[C@@H](CC(N)=O)NC(=O)[C@@H](Cc2ccc(O)cc2)NC(=O)[C@@H](CO)NC1=O [Compound 6c, Cyclo-[Undecanoic Acid-D-Ser-Orn-D-Ser-D-Tyr-D-Asn-Gly-Asn-Ser-Asn]] (Undecanoyl-[dS][Orn][dS][dY][dN]GNSN; lactam 2-C)
14 | 11.2 min | >200 mg/L | CCCCCCCCCCCC(=O)N[C@H](CO)C(=O)N[C@H]1CCCNC(=O)[C@H](CC(N)=O)NC(=O)[C@H](CO)NC(=O)[C@H](CC(N)=O)NC(=O)CNC(=O)[C@@H](CC(N)=O)NC(=O)[C@@H](Cc2ccc(O)cc2)NC(=O)[C@@H](CO)NC1=O [Compound 6d, Cyclo-[Dodecanoic Acid-D-Ser-Orn-D-Ser-D-Tyr-D-Asn-Gly-Asn-Ser-Asn]] (Lauroyl-[dS][Orn][dS][dY][dN]GNSN; lactam 2-C)
